The test system of assay [1] is GK. Kind of assay: Intramolecular FRET of CFP-GK-YFP (GK conformation). In kind it is cell-based. Conditions: 5 min; for Insulin-stimulated changes in FRET of mutant CFP-GK-YFP: 100 nM insulin. The method, then: (§1) Cell culture. βTC3 cells were cultured as described (Rizzo et al., 2002) and were transferred to media containing 1 g/L glucose overnight prior to observation. […] For FRAP, CFP-GK-YFP FRET, and nitrosylation experiments, DNA plasmids containing GK-YFP constructs, proinsulin-CFP, or CFP-GK-YFP were introduced by electroporation prior to seeding as previously described (Rizzo et al., 2002). For studies requiring co-transfection, plasmid DNA encoding the indicated constructs were transfected using either a ratio of (2 μg nNOS-CFP:1 μg GK-YFP:6 μl FUGENE (Roche Applied Science)) or of (1 μg nNOS-CFP-nuc:2 μg GK-YFP:6 μl FUGENE). Transfection was for 4 h in serum-free media, followed by replacement with low-glucose media. Observation took place the following day.
(§2) Microscopy. βTC3 cells were labeled with 5 μM DAF-FM diacetate (Molecular Probes) for 25 min at 25° C. in BSA free BMHH. Observation was with 488 nm excitation and 505–530 nm collection by laser scanning confocal microscopy (Zeiss LSM510). During observation, cells were heated to 32° C. using a Bioptechs Delta T system. FRAP and intramolecular FRET measurements were performed on cultured βTC3 cells as previously described (Rizzo et al., 2002). Statistical significance (p<0.05 by ANOVA or t-test as appropriate) is denoted by * and was determined from at least three granules in the same region or at least three cells for the FRET studies as compared to pre-treatment FRET ratios. Data shown is representative of at least 3 independent trials. Observation of nNOS-CFP-nuc and GK-YFP were performed using the same filter settings as the FRAP measurements. FRET between nNOS-CFP and GK-YFP was observed using 864 nm two-photon excitation along with a KP700/514 main beam splitter and standard CFP and YFP collection using a 40×, 1.3NA F-FLUAR oil immersion objective lens. For the FRET measurements, the temperature was maintained at 37° C. using a Zeiss S-M incubator controlled by the CTI temperature regulator along with humidification and an objective heater.

Assay [2] relates to GK. The assay can be described thus: Detection of S-nitrosylated GK (biotinylation, neutravidin-agarose or immunoprecipitation, Western blot). In kind it is cell-based. Conditions: for Nitrosylated GK in neutravidin precipitates: βTC3 cell lysates, insulin alone or L-NAME in addition to insulin; for S-nitrosylation of mutant GK-YFP: mutant GK-YFP constructs expressed in βTC3 cells. The method, then: Detection of nitrosylated proteins. S-nitrosylated proteins were biotinylated and isolated from cell lysates using the protocol described (Jaffrey et al., 2001). Briefly, cells were lysed in HEN buffer (250 mM Hepes pH7.7, 1 mM EDTA, 0.1 mM neocuproine) using 0.5% triton X-100 and 0.5% Cholate prior to protection of free cysteines with methyl methanethiosulfonate (Pierce) and derivatization of S-nitrosylated cysteines with ascorbic acid and biotin-HPDP (Pierce). Biotinylated proteins were either isolated by binding to neutravidin-agarose (Pierce), followed by 5 washes with a high salt buffer (20 mM Hepes pH 7.7, 600 mM NaCl, 1 mM EDTA and 0.5% Triton X-100) and elution in HNE buffer (20 mM Hepes pH 7.7, 100 mM NaCl, 1 mM EDTA) plus 100 mM 2-mercaptoethanol. Alternatively, GK-YFPs were isolated by immunopreciptation with A.V. Peptide Antibody (BD BioSciences Clontech) preconjugated to IgG agarose (Sigma). Western blots were then performed on eluted proteins to detect GK and nitrosylated proteins.
(In general: Immunoblotting shows a protein as a band on a membrane.)

Assay [3] deals with GK. Kind of assay: FRAP of GK-YFP to CFP-labeled insulin granules (GK association with secretory granules). The class given is cell-based. To be noted: for Insulin-stimulated FRAP of mutant GK-YFP to CFP labeled granules: βTC3 cells, mutant GK-YFP and proinsulin-CFP. As for the experimental part: as §1, §2
Assay [4] has as its system GK association with nNOS. In kind it is binding. Conditions: 1 mM DEANO in PBS, 37° C., 10 min.
For assay [5], the target named is T1, GK association with nNOS (Mus musculus, UniProt P52792).
T1 construct: the inventors immunoprecipitated endogenous GK from cell lysates; endogenous in cells; host or cells: βTC3 cells
T1 sequence (P52792 1-465): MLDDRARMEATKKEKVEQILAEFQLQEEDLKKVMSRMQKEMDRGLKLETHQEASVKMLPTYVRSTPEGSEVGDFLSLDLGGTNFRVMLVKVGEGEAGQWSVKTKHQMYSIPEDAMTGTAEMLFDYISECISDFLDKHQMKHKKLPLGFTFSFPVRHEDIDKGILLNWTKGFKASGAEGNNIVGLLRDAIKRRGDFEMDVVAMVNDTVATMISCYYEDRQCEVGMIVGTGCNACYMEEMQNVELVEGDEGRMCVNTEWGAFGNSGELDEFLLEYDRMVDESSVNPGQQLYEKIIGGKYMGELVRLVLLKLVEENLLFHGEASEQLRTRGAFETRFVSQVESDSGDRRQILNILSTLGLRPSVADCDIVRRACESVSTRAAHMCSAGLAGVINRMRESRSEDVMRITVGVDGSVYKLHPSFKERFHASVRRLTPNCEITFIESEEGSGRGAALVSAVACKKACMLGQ
In kind it is binding. Conditions: 1 mM DEANO in PBS, 37° C., 10 min.

The subject of assay [6] is interaction between nNOS and GK. The assay can be described thus: FRET between nNOS-CFP and GK-YFP in living cells (two-photon microscopy). The class given is cell-based, rat. Conditions: insulin 100 nM. As for the experimental part:
as §1
Generation of constructs. […]
Microscopy. βTC3 cells were labeled with 5 μM DAF-FM diacetate (Molecular Probes) for 25 min at 25° C. in BSA free BMHH. […] Statistical significance (p<0.05 by ANOVA or t-test as appropriate) is denoted by * and was determined from at least three granules in the same region or at least three cells for the FRET studies as compared to pre-treatment FRET ratios. […]

Assay [7] deals with βTC3 cells. The assay can be described thus: NO production in βTC3 cells loaded with DAF-FM (confocal microscopy). The class given is cell-based. Conditions: βTC3 cells starved 4 h, 100 nM insulin vs untreated cells. The method, then:
as §1
Microscopy. βTC3 cells were labeled with 5 μM DAF-FM diacetate (Molecular Probes) for 25 min at 25° C. in BSA free BMHH. Observation was with 488 nm excitation and 505–530 nm collection by laser scanning confocal microscopy (Zeiss LSM510). During observation, cells were heated to 32° C. using a Bioptechs Delta T system. […] Statistical significance (p<0.05 by ANOVA or t-test as appropriate) is denoted by * and was determined from at least three granules in the same region or at least three cells for the FRET studies as compared to pre-treatment FRET ratios. […]

On to `COC(=O)[C@@H](N)CCCNC(=N)N[N+](=O)[O-]` [L-NAME, N^G-nitro-L-arginine-methyl ester, reference compound], for which the “Effect on insulin-induced decrease of the CFP-GK-YFP FRET ratio” value in assay [1] (L-NAME 5 mM, 10 min before insulin 100 nM) is listed as “prevented the decrease in the FRET ratio”. For the same molecule, in assay [2], the “Nitrosylated GK in neutravidin precipitates” value was “not”. For the same molecule, the “Effect on insulin-stimulated GK-YFP FRAP” value in assay [3] (L-NAME 5 mM, 10 min pretreatment, then insulin 100 nM, 5 min) is on record as “blocked the stimulatory effects of insulin on GK-YFP FRAP”. For the same molecule, the “Glucose stimulated activation of GK FRAP and FRET” value in assay [3] (treatment with L-NAME, data not shown) is “sensitive”.
`CC(=O)N[C@H](C(=O)O)C(C)(C)SN=O` [SNAP, S-nitroso-N-acetylpenicillamin]: the “Reversal of NOS inhibition in GK-YFP FRAP” value in assay [3] (SNAP 100 μM, 1 min, after L-NAME and insulin) is reported as “effects of NOS inhibition were reversed”.
As for `CCN(CC)/[N+]([O-])=N/O.CCNCC` [DEANO, diethylamine nitric oxide], in assay [4], the “Elution of nNOS from GK(C371S)-YFP precipitates” value was “not from GK(C371S)-YFP precipitates”. In addition, the “Elution of nNOS from endogenous GK and GK-YFP precipitates” value in assay [5] is “resulted in elution of nNOS”.
insulin: in assay [6], the “FRET between nNOS-CFP and GK(C371S)-YFP” value is “increased”; the “FRET between nNOS-CFP and GK-YFP” value is on record as “decrease”. Besides, the “FRET ratio between CFP and YFP on opposing ends of GK” value in assay [1] (βTC3 cells, insulin 100 nM) is “decreases”. Besides, the “Nitrosylated GK in neutravidin precipitates” value in assay [2] is on record as “detected”. For the same molecule, the “NO production (fluorescence of DAF-FM)” value in assay [7] is “rapid increase in the fluorescence of DAF-FM”.

B1: GK-C371S: glucokinase with cysteine 371 mutated to serine; recombinant His-tagged, or YFP-tagged in cells (protein, UniProt P35557 1-465, looked up, variant C371S)
Hexokinase-4: MLDDRARMEAAKKEKVEQILAEFQLQEEDLKKVMRRMQKEMDRGLRLETHEEASVKMLPTYVRSTPEGSEVGDFLSLDLGGTNFRVMLVKVGEGEEGQWSVKTKHQMYSIPEDAMTGTAEMLFDYISECISDFLDKHQMKHKKLPLGFTFSFPVRHEDIDKGILLNWTKGFKASGAEGNNVVGLLRDAIKRRGDFEMDVVAMVNDTVATMISCYYEDHQCEVGMIVGTGCNACYMEEMQNVELVEGDEGRMCVNTEWGAFGDSGELDEFLLEYDRLVDESSANPGQQLYEKLIGGKYMGELVRLVLLRLVDENLLFHGEASEQLRTRGAFETRFVSQVESDTGDRKQIYNILSTLGLRPSTTDCDIVRRASESVSTRAAHMCSAGLAGVINRMRESRSEDVMRITVGVDGSVYKLHPSFKERFHASVRRLTPSCEITFIESEEGSGRGAALVSAVACKKACMLGQ
modifications: His tag or YFP fusion
notes: glucokinase with cysteine 371 mutated to serine; recombinant His-tagged, or YFP-tagged in cells
On to B1, for which, in assay [1] (βTC3 cells), the “Insulin-stimulated changes in FRET of mutant CFP-GK-YFP” value is recorded as “stopped”. The “S-nitrosylation of mutant GK-YFP” value in assay [2] is reported as “eliminated GK nitrosylation”. In addition, the “Insulin-stimulated FRAP of mutant GK-YFP to CFP labeled granules” value in assay [3] was “stopped insulin-stimulated FRAP”.

B2: C364S: glucokinase with cysteine 364 mutated to serine, YFP-tagged construct (protein, UniProt P35557 1-465, looked up, variant C364S)
Hexokinase-4: MLDDRARMEAAKKEKVEQILAEFQLQEEDLKKVMRRMQKEMDRGLRLETHEEASVKMLPTYVRSTPEGSEVGDFLSLDLGGTNFRVMLVKVGEGEEGQWSVKTKHQMYSIPEDAMTGTAEMLFDYISECISDFLDKHQMKHKKLPLGFTFSFPVRHEDIDKGILLNWTKGFKASGAEGNNVVGLLRDAIKRRGDFEMDVVAMVNDTVATMISCYYEDHQCEVGMIVGTGCNACYMEEMQNVELVEGDEGRMCVNTEWGAFGDSGELDEFLLEYDRLVDESSANPGQQLYEKLIGGKYMGELVRLVLLRLVDENLLFHGEASEQLRTRGAFETRFVSQVESDTGDRKQIYNILSTLGLRPSTTDSDIVRRACESVSTRAAHMCSAGLAGVINRMRESRSEDVMRITVGVDGSVYKLHPSFKERFHASVRRLTPSCEITFIESEEGSGRGAALVSAVACKKACMLGQ
modifications: YFP fusion
notes: glucokinase with cysteine 364 mutated to serine, YFP-tagged construct
As to B2, the “Insulin-stimulated changes in FRET of mutant CFP-GK-YFP” value in assay [1] (βTC3 cells) is on record as “did not have a significant effect”. In addition, the “S-nitrosylation of mutant GK-YFP” value in assay [2] is “slight decrease in the amount of nitrosylated GK”. Also, the “Insulin-stimulated FRAP of mutant GK-YFP to CFP labeled granules” value in assay [3] is listed as “did not have a significant effect”.

Source of the values: patent publication US7179613B2, “Methods of screening for a candidate modulator of glucokinase” (Vanderbilt University, priority 2003, dated 2007).
